This is an account of results in US7235678B2 (priority 2004, dated 2007).

Test [1] concerns Candida albicans (5 isolates). Description: Antibiotic inhibition assay using disc method, C. albicans isolates. The class given is cell-based.
Another test has as its system Benjaminiella poitrasii. Briefly: microbe, parasite or virus in culture. The class given is cell-based. The following applies: B. poitrassi, disc method; for MIC: 28° C.
Another test relates to Yarrowia lipolytica. Description: Antibiotic inhibition assay using disc method, Y. lipolytica. The class given is cell-based. The following applies: for MIC: 28° C.
For test [2], the system named is clinical isolate of C. albicans. Conditions: microtitre dilution broth assay; cited from earlier work.
The test system of test [3] is Candida albicans (5 isolates), Benjaminiella poitrasii and Yarrowia lipolytica. Description: Antibiotic inhibition assay using disc method, all fungi tested together. The class given is cell-based. The following applies: for antifungal activity (in words): Candida albicans (five isolates), Benjaminiella poitrasii and Yarrowia lipolytica, compared with cycloheximide; for MIC: all five C. albicans isolates, B. poitrassi and Y. lipolytica.

Where [4] appears, read: C. albicans, Isolate no. 1, disc method.
Where [5] appears, read: C. albicans, Isolate no. 2, disc method.
Setting [6] is: C. albicans, Isolate no. 3, disc method.
[7] abbreviates: C. albicans, Isolate no. 4, disc method.
Setting [8] is: C. albicans, Isolate no. 5, disc method.
Setting [9] is: C. albicans, Isolate no. 1, disc method, 28° C., 24 hours.
The mark [10] stands for this setting: C. albicans, Isolate no. 2, disc method, 28° C., 24 hours.
The mark [11] stands for this setting: C. albicans, Isolate no. 3, disc method, 28° C., 24 hours.
Where [12] appears, read: C. albicans, Isolate no. 4, disc method, 28° C., 24 hours.
Where [13] appears, read: C. albicans, Isolate no. 5, disc method, 28° C., 24 hours.

Converted amounts (≈) assume the structure as drawn.

In the case of `C[C@@H]1C[C@@H]([C@H](O)CC2CC(=O)NC(=O)C2)C(=O)[C@@H](C)C1` [Cycloheximide, reference compound], the “Inhibition Zone” value turned out to be 1.0 cm in test [1] (setting [4]); 0.9 cm in test [1] (setting [5]); 0.9 cm in test [1] (setting [6]); 1.0 cm in test [1] (setting [7]); 0.8 cm in test [1] (setting [8]); 1.45 cm in the test with Benjaminiella poitrasii. Moreover, in the test on Yarrowia lipolytica, the “Inhibition Zone” value is 0.9 cm. Also, the MIC was 356 nM (≈ 0.1 µg/mL) in test [1] (Candida albicans, 24 h, C. albicans, Isolate no. 1, disc method, 28° C.); 539 nM (≈ 0.152 µg/mL) in test [1] (Candida albicans, 24 h, C. albicans, Isolate no. 2, disc method, 28° C.); 267 nM (≈ 0.0751 µg/mL) in test [1] (Candida albicans, 24 h, C. albicans, Isolate no. 3, disc method, 28° C.); 534 nM (≈ 0.15 µg/mL) in test [1] (Candida albicans, 24 h, C. albicans, Isolate no. 4, disc method, 28° C.); 534 nM (≈ 0.15 µg/mL) in test [1] (Candida albicans, 24 h, C. albicans, Isolate no. 5, disc method, 28° C.); 250 to 500 nM (≈ 0.0703 to 0.141 µg/mL) in test [1] (Candida albicans, isolates of C. albicans, range over isolates). Also, the MIC is 71.2 nM (≈ 0.02 µg/mL) with Benjaminiella poitrasii (24 hours); 71 nM (≈ 0.02 µg/mL) against Benjaminiella poitrasii (Benjaminiella poitrasii, 24 h); 106.8 nM (≈ 0.03 µg/mL) against Yarrowia lipolytica (24 hours); 106 nM (≈ 0.0298 µg/mL) with Yarrowia lipolytica (Yarrowia lipolytica, 24 h); “greater than 900 nM” in test [2].
As to “N^1,N^3-Diethylenetriaminebis [Compound (2), N^1,N^3-Diethylenetriaminebis [deoxycholic acid amide]]”, the “Inhibition Zone” value turned out to be 0.9 cm in test [1] (setting [4]); 0.7 cm in test [1] (setting [5]); 1.0 cm in test [1] (setting [6]); 0.8 cm in test [1] (setting [7]); 0.9 cm in test [1] (setting [8]); 0.6 cm with Benjaminiella poitrasii. Besides, the “Inhibition Zone” value with Yarrowia lipolytica is 0.8 cm. Moreover, the MIC in test [1] (setting [9]) was determined as 11.75 nM; in test [1] (setting [10]), 11.75 nM; in test [1] (setting [11]) it was 11.75 nM; in test [1] (setting [12]) it was 11.75 nM; in test [1] (setting [13]), 17.63 nM; in the test on Benjaminiella poitrasii (24 hours) it was 17.63 nM. Moreover, the MIC in the test on Yarrowia lipolytica (24 hours) was 23.50 nM; in test [3], 10 to 25 nM. In addition, the “antifungal activity (in words)” value in test [3] is “moderate antifungal activity”.
Turning to `CC(CCC(=O)NCCNCCNC(=O)CCC(C)C1CCC2C3C(O)CC4CC(O)CCC4(C)C3CC(O)C12C)C1CCC2C3C(O)CC4CC(O)CCC4(C)C3CC(O)C12C` (stereo not drawn) [Compound (1), N^1,N^3-Diethylenetriaminebis [cholic acid amide]], the “Inhibition Zone” value in test [1] (setting [4]) came to 0.8 cm; in test [1] (setting [5]), 0.8 cm; in test [1] (setting [6]), 0.8 cm; in test [1] (setting [7]) it was 0.8 cm; in test [1] (setting [8]), 0.8 cm; in the test on Benjaminiella poitrasii, 0.7 cm. Besides, in the test on Yarrowia lipolytica, the “Inhibition Zone” value is 0.9 cm. For the same compound, the MIC (in test [1] (setting [9]); in test [1] (setting [10]); in test [1] (setting [11]); in test [1] (setting [12]); in test [1] (setting [13]); against Benjaminiella poitrasii (24 hours)) was 11.32 nM (≈ 0.01 µg/mL) in each case. The MIC (in the test on Yarrowia lipolytica (24 hours); in test [3]) was 11.32 nM (≈ 0.01 µg/mL) throughout. Further, the “antifungal activity (in words)” value in test [3] was “very good antifungal activity”. Moreover, in test [3] (summary in description, fungi not specified), the “minimum inhibitory concentration (MIC)” value was “about 11.30 nM”.
